Three substances from US9963514B2, “BAG3 receptor binding molecules for use as a medicament” (BIOUNIVERSA S.R.L., priority 2013, dated 2018) can be followed below.

Assay [1] has as its system J774 A1 cells. The assay can be described thus: Binding of FITC-BAG3 to J774 macrophages by flow cytometry, with competition by BAG3-specific peptides or anti-BAG3 F(ab')2. Further details: species or system murine. The protocol: J774 A1 cells (1×10^6 cells/ml) were incubated with different concentrations of BAG3 FITC protein ([…]). FITC-BSA (70 nM) was used as a negative control (grey). Fluorescence was analyzed by flow cytometry. (FIG. 10).
In particular, J774 cells were incubated with 14 nM FITC-BAG3 protein and with 625 nM BAG3-specific peptides (peptide 1, peptide 2, peptide 3, peptide 4, or a scrambled peptide) or with 420 nM of anti-BAG3 F(ab′) antibodies (mouse monoclonal antibodies AC1, AC2 and the polyclonal antibody produced in rabbit TOS2). Fragments F(ab′) 2 of rabbit or mouse IgG were used as a negative control.

The subject of assay [2] is pancreatic adenocarcinoma cells (PANC-1). Briefly: Confocal fluorescence microscopy of rBAG3-FITC binding to PANC-1 cells. The note with it: 0.1% NaN3, 1 h. The method, then: (§1) (FIG. 9). Confocal fluorescence microscopy analysis was performed to measure the binding of rBAG3-FITC to HCM, J774 A1, and PANC-1 cells. The BAG3 recombinant protein and the BSA (bovine serum albumin) (SIGMA) were conjugated to FITC using the FluoroTag Conjugation FITC kit (SIGMA) following the manufacturer's instructions. Equal amounts of rBAG3-FITC and BSA-FITC were added to the three cell lines in the presence of 0.1% NaN3 for 1 h. β-integrin protein was used as a positive control. Fluorescence was analyzed using a Zeiss LSM confocal microscope.

The subject of assay [3] is J774 A1 cells. Briefly: Confocal fluorescence microscopy of rBAG3-FITC binding to J774 cells. Further details: species or system murine. As to conditions: 1 h. The method, then:
The binding of the BAG3 protein to the cell surface of the J774 cells was then confirmed through conjugation of the recombinant protein with a fluorophore (FIG. 8). The BAG3 recombinant protein was then conjugated to FITC using the FluoroTag Conjugation FITC kit (SIGMA). Equal amounts of BSA-FITC (negative control) and rBAG3-FITC were added to the culture medium for 1 h. The cells were then fixed with a 3.7% formaldehyde solution and analyzed with a Zeiss LSM confocal microscope.
Confocal fluorescence microscopy analysis was performed to measure the binding of rBAG3-FITC to HCM, J774 A1, and PANC-1 cells. The BAG3 recombinant protein and the BSA (bovine serum albumin) (SIGMA) were conjugated to FITC using the FluoroTag Conjugation FITC kit (SIGMA) following the manufacturer's instructions. Equal amounts of rBAG3-FITC and BSA-FITC were added to the three cell lines in the presence of 0.1% NaN3 for 1 h. β-integrin protein was used as a positive control. Fluorescence was analyzed using a Zeiss LSM confocal microscope.

Assay [4] relates to heart muscle cells (HCM). Briefly: Confocal fluorescence microscopy of rBAG3-FITC binding to HCM cells. The note with it: 0.1% NaN3, 1 h. The method, then: as §1
Assay [5] concerns J774 A1 macrophages. Briefly: IL-6 release by J774 A1 macrophages incubated with rBAG3 (ELISA, Example 13). The class given is cell-based, murine. The note with it: J774A.1 cells, 5 hours. The protocol: J774A.1 cells at 80% confluence were incubated with a control medium, BSA, LPS, or BAG3 for 5 hours. IL-6 was measured in the cell culture medium using an ELISA test. IL-6 concentration was assessed by comparing the sample's ODs with that of a standard IL-6 recombinant curve (FIG. 13).
(In an ELISA, binding on a coated surface is turned into a signal by an enzyme label.)

Assay [6] has as its system J774 A1 macrophages. Briefly: Nitrite release by J774 A1 macrophages incubated with rBAG3 (Example 12). As to conditions: J774 A1 cells, 24 hours. Type of assay: cell-based, murine. The protocol:
J774 A1 cells at 80% confluence were incubated with a control medium, BSA, LPS, or rBAG3 for 24 hours. […] supernatant from each sample was incubated with […] Griess reagent; the optical density at 550 nm (OD550) was measured with a Beckman DU62 spectrophotometer. The nitrite concentration was assessed by comparing the sample's OD at 550 nm with that of a standard sodium nitrite curve (FIG. 12).

Assay [7] deals with cyclo-oxygenase-2 (COX-2). Briefly: Effect of rBAG3 on COX-2 expression in J774 cells (Western blot). The class given is cell-based, murine. As to conditions: 20 hours. The protocol:
(§2) In order to explore the functional consequences of the binding of BAG3 to macrophages, we tested the effect of rBAG3 expression on inducible nitric oxide synthase (iNOS) and cyclo-oxygenase-2 (COX-2) in the cells. J774 cells at 80% confluence were incubated with a control medium, BSA, LPS or rBAG3 for 20 hours. Polymyxin was added to verify the presence of non-specific effects of endotoxins still present after the purification of the BAG3 recombinant protein. COX-2 and iNOS were analyzed in cell lysates by Western blotting.

For assay [8], the system named is J774 murine monocyte cell line. Briefly: Macrophage activation: nitrite production with Griess reagent (Example 8). Type of assay: cell-based. As to conditions: 24 h. The protocol: J774 cells were plated at a 60% confluence and incubated for 24 h with the BAG3 recombinant protein at concentrations of 10, 30, or 100 ng/ml. The nitrites production was verified in the culture medium using Griess reagent (1% sulphanilamide, 0.1% naphthyl ethylenediamine, 5% phosphoric acid) and measured using a Beckman DU-62 spectrophotometer at […].
The BAG3 recombinant protein was then used in macrophage activation assays in order to determine a possible role of the protein released in the serum in relation to the blood cells. To this end, the J774 murine monocyte cell line was treated with the BAG3 recombinant protein at different concentrations, using a pro-inflammatory agent, such as lipopolysaccharide (LPS), as a positive control. The activation of monocytes was measured by assay of nitrites. (FIG. 7).
In general terms: Nitrite, measured by Griess reagent, commonly stands in for NO production.

Assay [9] relates to inducible nitric oxide synthase (iNOS). The assay can be described thus: Effect of rBAG3 on iNOS expression in J774 cells (Western blot). The class given is cell-based, murine. The note with it: 20 hours. The protocol: as §2

Regarding “FITC-BSA: bovine serum albumin conjugated to FITC, negative control [reference compound]”, the “FITC-BSA positive cell % (±D.S.)” value in assay [1] (J774 cells, FITC-BSA negative control, flow cytometry) was 4.04 (±0.06) %.
For the substance “FITC-rBAG3: BAG3 recombinant protein conjugated to FITC using the FluoroTag Conjugation FITC kit”, the “binding to pancreatic adenocarcinoma cells (PANC-1)” value in assay [2] is on record as “not”. In addition, the “FITC-rBAG3 positive cell % (±D.S.)” value in assay [1] (J774 cells, FITC-rBAG3 alone, flow cytometry) is on record as 15.7 (±0.45) %. For the same substance, the “(FITC-rBAG3)-(FITC-BSA) positive cell % (±D.S.)” value in assay [1] (J774 cells, FITC-rBAG3 minus FITC-BSA) is recorded as 11.06 (±0.45) %. In addition, in assay [1] (flow cytometry, 7, 14 and 70 nm FITC-BAG3), the “binding of FITC-BAG3 to macrophages of the J774 cell line” value is listed as “binds the macrophages of the J774 cell line”. The figures for the “binding to the cell surface of J774 macrophages” value in [3] (listed as BAG3 recombinant protein bound to fluorescein isothiocyanate (FITC)) and in assay [3] (listed as rBAG3-FITC) were “binds the surface of macrophages” and “confirmed”, respectively. Besides, the “binding to heart muscle cells (HCM)” value in assay [4] is “not”.
“rBAG3: BAG3 recombinant protein with a His tag”: the “release of interleukin-6 (IL-6)” value in [5] is given as “induces the release of interleukin-6 (IL-6)”. The release of nitrite entry in [6] is given as “induces the release of nitrite”. Moreover, the COX-2 enzyme levels entry in assay [7] was “increased”. In [8] (J774 cells, 100 ng/ml, p<0.001), the “increase of nitrite production compared to the control” value was determined as 200%. In assay [8] (J774 cells, 10, 30 or 100 ng/ml), the “nitrite production, dependence on dose” value is reported as “dose-dependent”. Moreover, in [9], the iNOS enzyme levels entry is “increased”.
